Each compound was assayed against human PDE4B1 (Homo sapiens (Human), UniProt Q07343) (assay: cAMP HTRF assay to determine the activity of hPDE4B1). Settings: IC50 inhibition of PDE4B; human recombinant PDE4B1, cAMP HTRF assay.
Assay type: biochemical
Method: Biological Testing cAMP HTRF® Assay to Determine the Activity of hPDE4B1
The inhibiting effect of the compounds on the enzyme activity of human PDE4B1 was measured by the quantification of 5′-adenosine monophosphate (5′-AMP), which is formed from 3′,5′-cyclic adenosine monophosphate (cAMP). Human recombinant enzyme, expressed in Sf9 cells, and the HTRF (homogeneous time-resolved fluorescence) detection method were used in the assay.
The test compound or water (control) was mixed with the human recombinant PDE4B1 enzyme (4.8 U) in a buffer consisting of 44.4 mM tris-HCl, 5.28 mM MgCl2, 2.64 mM DTT and 0.044% Tween 20 (pH 7.8). After adding the cAMP enzyme substrate (final concentration 40 nM), the mixture was incubated for 30 minutes at room temperature. Then a fluorescence acceptor (Dye2 marked with cAMP), a fluorescence donor (anti-cAMP antibody marked with a europium cryptate) and the non-specific phosphodiesterase inhibitor IBMX (3-isobutyl-1-methylxanthine; final concentration 1 mM) were added. After 60 min the fluorescence transfer, which correlates with the amount of remaining cAMP, was measured with a microplate reader (Rubystar, BMG) at λex=337 nm, λem=620 nm and λem=665 nm. The enzyme activity was calculated from the quotient formed from the measured signal at 665 nm and that at 620 nm. The result was expressed as the percentage inhibition of enzyme activity of the control (without PDE4 inhibitor). The enzyme was omitted for measurement of the basal control.
[N. Saldou et al., Comparison of recombinant human PDE4 isoforms: interaction with substrate and inhibitors, Cell. Signal. Vol. 10, No. 6, 427-440, 1998]. Several compounds according to the invention are tested in the above-described assay.

human PDE4B1, sequence (Q07343 whole entry): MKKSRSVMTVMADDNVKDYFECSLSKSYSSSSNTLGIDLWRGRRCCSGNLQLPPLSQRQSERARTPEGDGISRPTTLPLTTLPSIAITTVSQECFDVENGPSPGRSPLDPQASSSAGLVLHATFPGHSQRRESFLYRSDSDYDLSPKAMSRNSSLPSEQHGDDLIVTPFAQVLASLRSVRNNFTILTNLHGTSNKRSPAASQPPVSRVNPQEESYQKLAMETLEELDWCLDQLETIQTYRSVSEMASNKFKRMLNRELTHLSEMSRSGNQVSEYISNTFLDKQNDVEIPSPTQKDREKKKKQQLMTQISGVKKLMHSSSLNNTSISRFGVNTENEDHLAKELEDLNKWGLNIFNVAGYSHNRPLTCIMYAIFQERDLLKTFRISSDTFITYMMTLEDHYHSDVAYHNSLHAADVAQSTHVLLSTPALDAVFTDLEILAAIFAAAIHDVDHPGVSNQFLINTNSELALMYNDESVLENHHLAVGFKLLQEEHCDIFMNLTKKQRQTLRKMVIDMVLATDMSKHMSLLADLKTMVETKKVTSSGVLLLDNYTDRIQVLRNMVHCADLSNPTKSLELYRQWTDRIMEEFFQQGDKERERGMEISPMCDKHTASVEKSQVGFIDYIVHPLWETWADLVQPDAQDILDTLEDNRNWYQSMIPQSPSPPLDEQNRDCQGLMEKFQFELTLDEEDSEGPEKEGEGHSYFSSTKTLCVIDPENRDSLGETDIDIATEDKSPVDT

Row | Compound | IC50 [µM]
1 | N#Cc1ccc(-c2cnc(N3CC4(CC4)c4ccc(C(=O)N5CCOCC5)cc43)nc2)c(F)c1 [Compound 30, 3-Fluoro-4-[2-[6-(morpholine-4-carbonyl)-spiro[1,2-dihydro-indole-3,1′-cyclopropane]-1-yl]-pyrimidin-5-yl]-benzonitrile] | 0.1 to 1
2 | COc1ccccc1-c1cnc(N2CC3(CC3)c3ccc(C(=O)N4CCOCC4)cc32)nc1 [Compound 31, [1-[5-(2-Methoxyphenyl)-pyrimidin-2-yl]-spiro[1,2-dihydro-indole-3,1′-cyclopropane]-6-yl]-morpholin-4-yl-methanone] | < 0.1
3 | CN(C(=O)c1ccc2c(c1)N(c1ncc(-c3ccccc3F)cn1)CC21CC1)C1CCOCC1 [Compound 102, 1-[5-(2-Fluorophenyl)-pyrimidin-2-yl]-N-methyl-N-tetrahydro-pyran-4-yl-spiro[1,2-dihydro-indole-3,1′-cyclopropane]-6-carboxylic acid amide] | 0.1 to 1
4 | N-(2-Hydroxy-ethyl)-1-[5-(3-methoxyphenyl)-pyrimidin-2-yl]-N-methyl-spiro[1,2-dihydro-indole-3,1′-cyclopropane]-6-carboxylic acid amide [Compound 197] | < 0.1
5 | N-[(3R)-1-[1-(5-Phenyl-pyrimidin-2-yl)-spiro[1,2-di-hydro-indole-3,1′-cyclopropane]-6-carbonyl]-pyrrolidin-3-yl]-acetamide [Compound 203] | 1 to 10
6 | CS(=O)(=O)c1ccccc1-c1cnc(N2CC3(CC3)c3ccc(C(=O)N4CCOCC4)cc32)nc1 [Compound 28, [1-[5-(2-Methylsulfonyl-phenyl)-pyrimidin-2-yl]-spiro[1,2-dihydro-indole-3,1′-cyclopropane]-6-yl]-morpholin-4-yl-methanone] | 0.1 to 1
7 | CN(C)[C@@H]1CCN(C(=O)c2ccc3c(c2)N(c2ncc(-c4ccccc4F)cn2)CC32CC2)C1 [Compound 110, [(3R)-3-Dimethylamino-pyrrolidin-1-yl]-[1-[5-(2-fluorophenyl)-pyrimidin-2-yl]-spiro[1,2-dihydro-indole-3,1′-cyclopropane]-6-yl]-methanone] | 0.1 to 1
8 | O=C(c1ccc2c(c1)N(c1ncc(-c3ccccc3)cn1)CC21CC1)N1CCOCC1 [Compound 7, Morpholin-4-yl-[1-(5-phenyl-pyrimidin-2-yl)-spiro[1,2-dihydro-indole-3,1′-cyclopropane]-6-yl]-methanone] | < 0.1
9 | CN(C)[C@@H]1CCN(C(=O)c2ccc3c(c2)N(c2ncc(-c4ccccc4F)cn2)CC32CC2)C1 [Compound 77, [(3R)-3-Dimethylamino-pyrrolidin-1-yl]-[1-[5-(2-fluorophenyl)-pyrimidin-2-yl]-spiro[1,2-dihydro-indole-3,1′-cyclopropane]-6-yl]-methanone] | 0.1 to 1
10 | O=C1CN(C(=O)c2ccc3c(c2)N(c2ncc(-c4ccccc4)cn2)CC32CC2)CCN1 [Compound 55, 4-[1-(5-Phenyl-pyrimidin-2-yl)-spiro[1,2-dihydro-indole-3,1′-cyclopropane]-6-carbonyl]-piperazin-2-one] | < 0.1
11 | 4-[1-(5-Phenyl-pyrimidin-2-yl)-spiro[1,2-dihydro-indole-3,1′-cyclopropane]-6-carbonyl]-piperazine-2,6-dione [Compound 202] | 0.1 to 1
12 | COC1CCN(C(=O)c2ccc3c(c2)N(c2ncc(-c4ccccc4F)cn2)CC32CC2)CC1 [Compound 100, [1-[5-(2-Fluorophenyl)-pyrimidin-2-yl]-spiro[1,2-dihydro-indole-3,1′-cyclopropane]-6-yl]-(4-methoxy-piperidin-1-yl)-methanone] | 0.1 to 1
13 | CN(Cc1ccco1)C(=O)c1ccc2c(c1)N(c1ncc(-c3ccccc3F)cn1)CC21CC1 [Compound 91, 1-[5-(2-Fluorophenyl)-pyrimidin-2-yl]-N-(furan-2-yl-methyl)-N-methyl-spiro[1,2-dihydro-indole-3,1′-cyclopropane]-6-carboxylic acid amide] | 0.1 to 1
14 | Morpholin-4-yl-[1-(5-pyridazin-4-yl-pyrimidin-2-yl)-spiro[1,2-dihydro-indole-3,1′-cyclopropane]-6-yl]-methanone [Compound 200] | < 0.1

Results, then the compound that gave them:

Row | IC50 [µM] | Compound
15 | < 0.1 | N[C@@H]1CCN(C(=O)c2ccc3c(c2)N(c2ncc(-c4cccc(F)c4F)cn2)CC32CC2)C1 [Compound 114, [(3R)-3-Amino-pyrrolidin-1-yl]-[1-[5-(2,3-difluoro-phenyl)-pyrimidin-2-yl]-spiro[1,2-dihydro-indole-3,1′-cyclopropane]-6-yl]-methanone]
16 | < 0.1 | O=C(c1ccc2c(c1)N(c1ncc(-c3ccnc(F)c3)cn1)CC21CC1)N1CCOCC1 [Compound 160, [1-[5-(2-Fluoro-pyridin-4-yl)-pyrimidin-2-yl]-spiro[1,2-dihydro-indole-3,1′-cyclopropane]-6-yl]-morpholin-4-yl-methanone]
17 | < 0.1 | O=C(c1ccc2c(c1)N(c1ncc(-c3ccccn3)cn1)CC21CC1)N1CCCC1 [Compound 175, [1-(5-Pyridin-2-yl-pyrimidin-2-yl)-spiro[1,2-dihydro-indole-3,1′-cyclopropane]-6-yl]-pyrrolidin-1-yl-methanone]
18 | 0.1 to 1 | NC(=O)c1ccc2c(c1)N(c1ncc(-c3ccccc3F)cn1)CC21CC1 [Compound 127, 1-[5-(2-Fluorophenyl)-pyrimidin-2-yl]-spiro[1,2-dihydro-indole-3,1′-cyclopropane]-6-carboxylic acid amide]
19 | < 0.1 | COc1cccc(-c2cnc(N3CC4(CC4)c4ccc(C(=O)N(C)CCO)cc43)nc2)n1 [Compound 211, N-(2-Hydroxy-ethyl)-1-[5-(6-methoxy-pyridin-2-yl)-pyrimidin-2-yl]-N-methyl-spiro[1,2-dihydro-indole-3,1′-cyclopropane]-6-carboxylic acid amide]
20 | 1 to 10 | O=C(O)C1CCN(C(=O)c2ccc3c(c2)N(c2ncc(-c4ccccc4F)cn2)CC32CC2)CC1 [Compound 215, 1-[1-[5-(2-Fluorophenyl)-pyrimidin-2-yl]-spiro[1,2-dihydro-indole-3,1′-cyclopropane]-6-carbonyl]-piperidine-4-carboxylic acid]
21 | 1 to 10 | COCC1CCN(C(=O)c2ccc3c(c2)N(c2ncc(-c4ccccc4F)cn2)CC32CC2)CC1 [Compound 217, [1-[5-(2-Fluorophenyl)-pyrimidin-2-yl]-spiro[1,2-dihydro-indole-3,1′-cyclopropane]-6-yl]-[4-(methoxymethyl)-piperidin-1-yl]-methanone]
22 | < 0.1 | O=C(c1ccc2c(c1)N(c1ncc(-c3cccc(F)n3)cn1)CC21CC1)N1CCOCC1 [Compound 151, [1-[5-(6-Fluoro-pyridin-2-yl)-pyrimidin-2-yl]-spiro[1,2-dihydro-indole-3,1′-cyclopropane]-6-yl]-morpholin-4-yl-methanone]
23 | < 0.1 | CC(C)(O)c1ccc(-c2cnc(N3CC4(CC4)c4ccc(C(=O)N5CCOCC5)cc43)nc2)s1 [Compound 207, [1-[5-[5-(1-Hydroxy-1-methyl-ethyl)-thiophen-2-yl]-pyrimidin-2-yl]-spiro[1,2-dihydro-indole-3,1′-cyclopropane]-6-yl]-morpholin4--yl-methanone]
24 | < 0.1 | Cc1ccnc(-c2cnc(N3CC4(CC4)c4ccc(C(=O)N5CCOCC5)cc43)nc2)c1 [Compound 192, [1-[5-(4-Methyl-pyridin-2-yl)-pyrimidin-2-yl]-spiro[1,2-dihydro-indole-3,1′-cyclopropane]-6-yl]-morpholin-4-yl-methanone]

— patent US10189854B2, “Substituted pyrimidine compounds” (Grünenthal GmbH, priority 2014, dated 2019)
